± gives the expanded uncertainty stated by the source.
Key:
[1] = molar heat capacity at constant pressure; wn = mass fraction of the nth substance listed; conditions: 101 kPa, w1 = 0.561
[2] = wn = mass fraction of the nth substance listed; conditions: 101 kPa, w1 = 0.561; for viscosity: Capillary tube (Ostwald / Ubbelohde) method; for mass density: Vibrating tube method

O=[N+]([O-])[O-].[Li+] [lithium nitrate] + O
Conditions | mass density [kg/m3] | molar heat capacity at constant pressure [J/K/mol] | thermal conductivity [W/m/K] | viscosity [mPa·s]
[1], 253.2 K, Crystal of intercomponent compound 1, Small sample (50 mg) DSC | – | 48.92 ± 4.9 | – | –
[1], 263.2 K, Crystal of intercomponent compound 1, Small sample (50 mg) DSC | – | 50.15 ± 4.9 | – | –
[1], 273.2 K, Crystal of intercomponent compound 1, Small sample (50 mg) DSC | – | 51.38 ± 5.2 | – | –
[1], 283.2 K, Crystal of intercomponent compound 1, Small sample (50 mg) DSC | – | 52.61 ± 5.2 | – | –
[1], 288.2 K, Crystal of intercomponent compound 1, Small sample (50 mg) DSC | – | 53.22 ± 5.2 | – | –
[2], 253.2 K, Crystal of intercomponent compound 1, Hot disk method | – | – | 0.76 ± 0.15 | –
[2], 263.2 K, Crystal of intercomponent compound 1, Hot disk method | – | – | 0.74 ± 0.15 | –
[2], 273.2 K, Crystal of intercomponent compound 1, Hot disk method | – | – | 0.77 ± 0.15 | –
[2], 283.2 K, Crystal of intercomponent compound 1, Hot disk method | – | – | 0.76 ± 0.15 | –
[2], 293.2 K, Crystal of intercomponent compound 1, Hot disk method | – | – | 0.75 ± 0.15 | –
[2], 294.2 K, Crystal of intercomponent compound 1, Hot disk method | – | – | 0.82 ± 0.16 | –
[2], 308.2 K, Liquid | 1425 ± 14 | – | – | 5.34 ± 0.11
[2], 313.2 K, Liquid | 1420 ± 14 | – | – | 4.8 ± 0.1
[2], 318.2 K, Liquid | 1413 ± 14 | – | – | 4.37 ± 0.09
[2], 323.2 K, Liquid | 1408 ± 14 | – | – | 3.96 ± 0.08
[2], 328.2 K, Liquid | 1402 ± 14 | – | – | 3.6 ± 0.08
[2], 333.2 K, Liquid | 1395 ± 14 | – | – | 3.31 ± 0.07
[2], 338.2 K, Liquid | 1390 ± 14 | – | – | 3.06 ± 0.06
[2], 343.2 K, Liquid | 1384 ± 14 | – | – | 2.84 ± 0.06
[2], 348.2 K, Liquid | 1378 ± 14 | – | – | 2.63 ± 0.06
[2], 353.2 K, Liquid | 1372 ± 14 | – | – | 2.46 ± 0.05

Liquid
Conditions | molar heat capacity at constant pressure [J/K/mol] | thermal conductivity [W/m/K]
[1], 308.2 K, hot wire method | 89.52 ± 9.5 | –
[1], 313.2 K, Small sample (50 mg) DSC | 84.91 ± 8.6 | –
[1], 313.2 K, hot wire method | 89.52 ± 9.5 | –
[1], 318.2 K, hot wire method | 90.45 ± 9.5 | –
[1], 323.2 K, Small sample (50 mg) DSC | 85.22 ± 8.6 | –
[1], 323.2 K, hot wire method | 90.45 ± 9.5 | –
[1], 328.2 K, hot wire method | 91.06 ± 9.5 | –
[1], 333.2 K, Small sample (50 mg) DSC | 84.91 ± 8.6 | –
[1], 333.2 K, hot wire method | 91.68 ± 9.8 | –
[1], 338.2 K, hot wire method | 91.99 ± 9.8 | –
[1], 343.2 K, Small sample (50 mg) DSC | 85.22 ± 8.6 | –
[1], 343.2 K, hot wire method | 92.29 ± 9.8 | –
[1], 348.2 K, hot wire method | 93.22 ± 9.8 | –
[1], 353.2 K, Small sample (50 mg) DSC | 84.91 ± 8.6 | –
[1], 353.2 K, hot wire method | 94.45 ± 10 | –
[2], 308.2 K, hot wire | – | 0.584 ± 0.059
[2], 313.2 K, hot wire | – | 0.581 ± 0.059
[2], 318.2 K, hot wire | – | 0.587 ± 0.06
[2], 323.2 K, hot wire | – | 0.583 ± 0.059
[2], 328.2 K, hot wire | – | 0.585 ± 0.059
[2], 333.2 K, hot wire | – | 0.588 ± 0.06
[2], 338.2 K, hot wire | – | 0.588 ± 0.06
[2], 343.2 K, hot wire | – | 0.588 ± 0.06
[2], 348.2 K, hot wire | – | 0.595 ± 0.06
[2], 353.2 K, hot wire | – | 0.611 ± 0.062
